Among the data in PubChem BioAssay (NCI) are TGI and GI50 values, retold here.

Molecules are shown by their SMILES.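 Grown in 96-well plates, cells were treated for 48 hours with each compound at five concentrations. Insufficient inhibition: endpoint recorded as highest concentration tested. GI50 = concentration required for 50% inhibition of growth. TGI: concentration producing complete growth inhibition.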 Bounds are passed on as bounds.

Among the test systems are A549 NSCLC; HCC-2998 colon; HCT-15 colon; IGROV1 ovarian; MOLT-4 leukemia; NCI-H460 lung; NCI-H522 lung; SF-268 CNS; SK-OV-3 ovarian; HS 578T breast.
What all share (assay): growth of human tumour cells (NCI), 48 h

For `COC(=O)c1cnc2nc(N3CCOCC3)[nH]n2c1=O`, the TGI with A549 NSCLC, in the test on HCC-2998 colon, in the test on HCT-15 colon, in the test with IGROV1 ovarian, in the test on MOLT-4 leukemia and with NCI-H460 lung was above 100 µM throughout. In addition, the TGI with NCI-H522 lung, in the test with SF-268 CNS and with SK-OV-3 ovarian was above 100 µM each time.
As for `CN(C)c1c(Cl)c(=O)oc2c1ccc1nc(-c3ccccc3)sc12`, the TGI in the test with A549 NSCLC, with HCC-2998 colon, in the test on HCT-15 colon, in the test on HS 578T breast, in the test with IGROV1 ovarian and with MOLT-4 leukemia was above 100 µM throughout. Besides, the TGI in the test with NCI-H460 lung, in the test on NCI-H522 lung and in the test with SF-268 CNS was above 100 µM in each case.
For `COc1ccc(-c2cc(C(=O)Nc3cccc(C(F)(F)F)c3)[nH]c(=S)n2)cc1`, the TGI with A549 NSCLC, in the test with HCC-2998 colon, in the test with HCT-15 colon, with IGROV1 ovarian, with MOLT-4 leukemia and in the test with NCI-H460 lung was above 100 µM throughout. Besides, the TGI in the test with NCI-H522 lung, in the test with SF-268 CNS and with SK-OV-3 ovarian was above 100 µM in each case.
As for `N#C/C(=C\c1ccc(CP(=O)(O)O)cc1)C(N)=O`, the TGI in the test with A549 NSCLC, with HCC-2998 colon, with HCT-15 colon, in the test on IGROV1 ovarian, in the test with MOLT-4 leukemia and with NCI-H460 lung was above 100 µM each time. Also, the TGI in the test with NCI-H522 lung, in the test on SF-268 CNS and with SK-OV-3 ovarian was above 100 µM in each case.
In the case of `C=C1C(=O)O[C@H]2[C@H]1CC/C(COC(=O)OCCCCCOC(=O)OC/C1=C/CC[C@@]3(C)O[C@H]3[C@H]3OC(=O)C(=C)[C@@H]3CC1)=C\CC[C@@]1(C)O[C@@H]21`, the GI50 was 2.63 µM in the test with A549 NSCLC; 0.252 µM in the test on HCT-15 colon; 2.48 µM in the test with HS 578T breast; 1.67 µM in the test on IGROV1 ovarian; 0.229 µM in the test on MOLT-4 leukemia; 1.87 µM in the test on NCI-H460 lung. Further, the GI50 was 0.156 µM in the test on NCI-H522 lung, 1.68 µM in the test with SF-268 CNS and 2.93 µM with SK-OV-3 ovarian. In addition, the TGI with A549 NSCLC turned out to be 7.42 µM; in the test on HCT-15 colon it was 0.822 µM; in the test with HS 578T breast it was 19.8 µM; in the test with IGROV1 ovarian, 4.37 µM; in the test on MOLT-4 leukemia, 0.727 µM; with NCI-H460 lung, 4.64 µM. In addition, the values for the TGI in the test with NCI-H522 lung, in the test on SF-268 CNS and in the test on SK-OV-3 ovarian were 0.372 µM, 3.99 µM and 9.67 µM, respectively.
On to `O=C1CCC2(c3ccc(F)cc3)Nc3ccccc3N12` (stereo not given), for which the TGI with A549 NSCLC, in the test on HCC-2998 colon, in the test with HCT-15 colon, with IGROV1 ovarian, in the test with MOLT-4 leukemia and in the test with NCI-H460 lung was above 100 µM each time. Besides, the TGI with NCI-H522 lung, in the test with SF-268 CNS and in the test with SK-OV-3 ovarian was above 100 µM each time.
Turning to `COc1cc(-c2c3c(cn2S(=O)(=O)c2ccccc2)-c2nc(N)sc2CC3)cc(OC)c1OC`, the GI50 is 0.58 µM with A549 NSCLC; 4.81 µM with HCC-2998 colon; 0.432 µM in the test with HCT-15 colon; 2.23 µM in the test on IGROV1 ovarian; 0.701 µM in the test on MOLT-4 leukemia; 0.51 µM in the test with NCI-H460 lung. Moreover, the GI50 with NCI-H522 lung was 0.349 µM; in the test on SF-268 CNS it was 4.46 µM; in the test on SK-OV-3 ovarian, 1.17 µM. The TGI in the test with A549 NSCLC was 17.1 µM; with HCC-2998 colon, above 100 µM; with HCT-15 colon, 27.2 µM; with IGROV1 ovarian, 75.1 µM; in the test with MOLT-4 leukemia, 43.1 µM; in the test on NCI-H460 lung, 18.4 µM. Besides, the results for the TGI with NCI-H522 lung, with SF-268 CNS and in the test with SK-OV-3 ovarian were 6.83 µM, above 100 µM and 9.77 µM, respectively.
On to `COc1ccc2c(c1)Oc1nc(N)c(C#N)c(N)c1C2Sc1ccc(SC)cc1` (stereo not given), for which the GI50 was 2 µM in the test with A549 NSCLC; 1.78 µM with HCC-2998 colon; 1.58 µM in the test on HCT-15 colon; 1.73 µM in the test with IGROV1 ovarian; 2.83 µM with MOLT-4 leukemia; 2.04 µM with NCI-H460 lung. Moreover, the GI50 was 1.65 µM in the test on NCI-H522 lung, 1.7 µM with SF-268 CNS and 1.77 µM in the test on SK-OV-3 ovarian. In addition, the TGI with A549 NSCLC turned out to be 3.91 µM; in the test with HCC-2998 colon, 3.36 µM; in the test on HCT-15 colon, 3.33 µM; in the test on IGROV1 ovarian, 3.78 µM; in the test with MOLT-4 leukemia, 6.87 µM; with NCI-H460 lung it was 4.05 µM. For the same compound, the TGI was 3.08 µM in the test with NCI-H522 lung, 3.29 µM in the test on SF-268 CNS and 3.16 µM with SK-OV-3 ovarian.
As to `C=C1C(=O)O[C@@H]2C[C@]3(C)[C@@H](C[C@H]12)[C@](C)(O)CC[C@@H]3O`, the TGI in the test with A549 NSCLC was above 100 µM; with HCC-2998 colon, above 100 µM; in the test on HCT-15 colon, above 100 µM; with IGROV1 ovarian, above 100 µM; in the test on MOLT-4 leukemia, above 100 µM; in the test with NCI-H460 lung, 68.9 µM. For the same compound, the TGI in the test on NCI-H522 lung, with SF-268 CNS and in the test with SK-OV-3 ovarian was above 100 µM throughout.
As for `O=[N+]([O-])c1ccccc1S(=O)c1ccccc1` (stereo not given), the TGI in the test with A549 NSCLC, in the test on HCC-2998 colon, in the test with HCT-15 colon, with IGROV1 ovarian, in the test with MOLT-4 leukemia and in the test with NCI-H460 lung was above 100 µM throughout. Besides, the TGI in the test with NCI-H522 lung, in the test on SF-268 CNS and with SK-OV-3 ovarian was above 100 µM in each case.
In the case of `O=C(NO)c1ccc(C(=O)NO)cc1`, the TGI in the test on A549 NSCLC was above 100 µM; in the test with HCC-2998 colon, 45.5 µM; with HCT-15 colon it was above 100 µM; with HS 578T breast, above 100 µM; in the test with IGROV1 ovarian, above 100 µM; in the test with MOLT-4 leukemia, 92.9 µM. Also, the TGI in the test on NCI-H460 lung is above 100 µM; in the test on SF-268 CNS it was above 100 µM; with SK-OV-3 ovarian it was 87.2 µM.
On to `CC(=O)O[C@]1(C(C)=O)CC[C@H]2[C@@H]3C[C@H](C)C4=CC(=O)C=C[C@]4(C)[C@@]3(F)[C@@H](O)C[C@@]21C`, for which the TGI in the test on A549 NSCLC, in the test with HCC-2998 colon, in the test on HCT-15 colon, in the test on IGROV1 ovarian, in the test with MOLT-4 leukemia and in the test with NCI-H460 lung was above 100 µM throughout. The TGI in the test on NCI-H522 lung is above 100 µM; in the test with SF-268 CNS, above 100 µM; in the test on SK-OV-3 ovarian, 51 µM.
